Reference: US8772480B2, “Inhibitors of PI3 kinase and/or mTOR” (priority 2009, dated 2014)

What was measured:
[1] = target: PI3Kα (Homo sapiens (Human), UniProt P42336); details: read-out: PI3Kα AlphaScreen ® Ki
[2] = test system: phosphorylation of Akt at Serine 473 in U87 MG cells; experiment: cells; details: Homo sapiens, U-87 MG, 2 h, read-out: U87Cell IC50, pAkt (Ser 473), U87 MG cells, two hours with compound

Chain of PI3Kα (P42336 whole entry): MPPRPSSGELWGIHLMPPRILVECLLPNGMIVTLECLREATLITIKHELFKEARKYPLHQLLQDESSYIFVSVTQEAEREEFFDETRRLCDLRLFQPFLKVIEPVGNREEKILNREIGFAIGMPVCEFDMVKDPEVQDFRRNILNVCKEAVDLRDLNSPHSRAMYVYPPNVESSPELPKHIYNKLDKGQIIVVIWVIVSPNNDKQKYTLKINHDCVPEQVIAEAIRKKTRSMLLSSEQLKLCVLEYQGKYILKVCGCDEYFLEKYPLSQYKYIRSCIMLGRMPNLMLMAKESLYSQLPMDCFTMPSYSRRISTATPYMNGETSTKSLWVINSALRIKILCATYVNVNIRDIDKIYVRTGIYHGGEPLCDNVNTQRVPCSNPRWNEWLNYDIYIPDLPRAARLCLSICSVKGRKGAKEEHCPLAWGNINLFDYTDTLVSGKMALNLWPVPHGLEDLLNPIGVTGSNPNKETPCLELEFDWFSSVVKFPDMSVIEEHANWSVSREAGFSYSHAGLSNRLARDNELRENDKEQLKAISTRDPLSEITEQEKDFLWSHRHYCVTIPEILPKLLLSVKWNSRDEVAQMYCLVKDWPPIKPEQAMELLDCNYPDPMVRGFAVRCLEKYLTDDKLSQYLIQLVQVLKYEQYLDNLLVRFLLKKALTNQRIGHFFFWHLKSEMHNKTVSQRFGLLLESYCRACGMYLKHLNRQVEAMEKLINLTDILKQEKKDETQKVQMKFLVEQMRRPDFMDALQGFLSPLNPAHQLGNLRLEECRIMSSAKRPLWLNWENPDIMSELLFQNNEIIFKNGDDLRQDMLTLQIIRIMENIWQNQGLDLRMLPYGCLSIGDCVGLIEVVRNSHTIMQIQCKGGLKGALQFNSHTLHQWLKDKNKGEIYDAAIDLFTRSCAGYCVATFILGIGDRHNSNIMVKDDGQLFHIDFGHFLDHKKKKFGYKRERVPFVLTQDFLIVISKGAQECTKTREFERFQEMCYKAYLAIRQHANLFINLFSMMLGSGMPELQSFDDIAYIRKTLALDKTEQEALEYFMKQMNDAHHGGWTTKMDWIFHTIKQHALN
Chain of PI3Kα (P27986 whole entry partner): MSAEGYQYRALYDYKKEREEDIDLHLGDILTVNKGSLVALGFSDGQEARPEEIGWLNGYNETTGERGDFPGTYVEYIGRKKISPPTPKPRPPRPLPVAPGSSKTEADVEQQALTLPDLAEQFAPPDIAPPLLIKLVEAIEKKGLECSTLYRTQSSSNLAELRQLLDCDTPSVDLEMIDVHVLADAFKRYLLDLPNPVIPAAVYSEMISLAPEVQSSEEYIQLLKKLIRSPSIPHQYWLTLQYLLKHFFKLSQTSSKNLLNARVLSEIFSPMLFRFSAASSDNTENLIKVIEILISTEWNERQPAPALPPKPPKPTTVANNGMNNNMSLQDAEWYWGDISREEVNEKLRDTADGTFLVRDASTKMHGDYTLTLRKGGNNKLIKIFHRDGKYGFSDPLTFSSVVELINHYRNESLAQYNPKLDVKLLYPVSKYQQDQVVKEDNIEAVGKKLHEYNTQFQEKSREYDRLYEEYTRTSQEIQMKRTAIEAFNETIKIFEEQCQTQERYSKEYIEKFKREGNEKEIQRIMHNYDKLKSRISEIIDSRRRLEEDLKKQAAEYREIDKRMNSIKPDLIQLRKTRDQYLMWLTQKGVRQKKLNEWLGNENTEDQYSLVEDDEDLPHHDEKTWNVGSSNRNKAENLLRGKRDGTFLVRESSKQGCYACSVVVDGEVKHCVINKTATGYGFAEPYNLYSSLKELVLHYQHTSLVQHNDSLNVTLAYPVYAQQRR

SMILES	Ki [1] [µM]	IC50 [2] [µM]
Cc1nc(N)nc(-c2cccnc2Nc2cccc(OC(F)F)c2)n1 [Example 164, 4-(2-(3-(Difluoromethoxy)Phenylamino)Pyridin-3-yl)-6-Methyl-1,3,5-Triazin-2-Amine]	0.963	> 10
Cc1nc(N)cc(-c2cccnc2Nc2cnc(Cl)c(NS(C)(=O)=O)c2)n1 [Example 304, N-(5-((3-(6-amino-2-methyl-4-pyrimidinyl)-2-pyridinyl)amino)-2-chloro-3-pyridinyl)methanesulfonamide]	0.029	0.146
COc1ccc(Nc2nc(-c3cccnc3)ccc2-c2nc(C)nc(N)n2)cn1 [Example 254, 5-(4-Amino-6-Methyl-1,3,5-Triazin-2-yl)-N-(6-Methoxypyridin-3-yl)-2,3′-Bipyridin-6-Amine]	0.067	0.583
Cc1nc(N)nc(-c2cccnc2Nc2ccc3c(c2)OC(F)(F)O3)n1 [Example 168, 4-(2-(2,2-Difluorobenzo[D][1,3]Dioxol-5-Ylamino)Pyridin-3-yl)-6-Methyl-1,3,5-Triazin-2-Amine]	0.61	> 10
C=Cc1cnc(Nc2cnc(Cl)c(NS(C)(=O)=O)c2)c(-c2cc(N)nc(C)n2)c1 [Example 380, N-(5-(3-(6-Amino-2-Methylpyrimidin-4-yl)-5-Vinylpyridin-2-Ylamino)-2-Chloropyridin-3-yl)Methanesulfonamide]	0.059	0.016
Cc1nc(N)nc(-c2cc(CN3CCN(C(=O)N(C)C)CC3)cnc2Nc2cnc(O)c(F)c2)n1 [Example 160, 4-((5-(4-Amino-6-Methyl-1,3,5-Triazin-2-yl)-6-(5-Fluoro-6-Hydroxypyridin-3-Ylamino)Pyridin-3-yl)Methyl)-N,N-Dimethylpiperazine-1-Carboxamide]	0.505	3.17
CCC(N)(CC)c1cnc(Nc2cnc(OC)c(F)c2)c(-c2nc(C)nc(N)n2)c1 [Example 301, 4-(5-(3-Aminopentan-3-yl)-2-(5-Fluoro-6-Methoxypyridin-3-Ylamino)Pyridin-3-yl)-6-Methyl-1,3,5-Triazin-2-Amine]	0.11	0.07
COc1ccc(Nc2ncc([C@@H](O)C(F)(F)F)cc2-c2nc(C)nc(N)n2)cn1 [Example 322, (R)-1-(5-(4-amino-6-methyl-1,3,5-triazin-2-yl)-6-(6-methoxypyridin-3-ylamino)pyridin-3-yl)-2,2,2-trifluoroethanol]	0.086	0.051
COc1ccc(Nc2ncc(C(=O)N3CCOCC3)cc2-c2nc(C)nc(N)n2)cn1 [Example 151, 4-(2-((6-Methoxy-3-Pyridinyl)Amino)-5-(4-Morpholinylcarbonyl)-3-Pyridinyl)-6-Methyl-1,3,5-Triazin-2-Amine]	0.064	0.143
CC(=O)Nc1ccc(Nc2ncc(CN3CCN(S(C)(=O)=O)CC3)cc2-c2nc(C)nc(N)n2)cc1 [Example 268, N-(4-(3-(4-Amino-6-Methyl-1,3,5-Triazin-2-yl)-5-((4-(Methylsulfonyl)Piperazin-1-yl)Methyl)Pyridin-2-Ylamino)Phenyl)Acetamide]	0.103	0.739
COCCNc1nc(C)nc(-c2cc(Cl)cnc2Nc2cnc(OC)c(F)c2)n1 [Example 189, 4-(5-Chloro-2-(5-Fluoro-6-Methoxypyridin-3-Ylamino)Pyridin-3-yl)-N-(2-Methoxyethyl)-6-Methyl-1,3,5-Triazin-2-Amine]	0.409	> 10
COc1ccc(Nc2ncc(C(C)(C)N)cc2-c2nc(C)nc(N)n2)cn1 [Example 277, 4-(5-(2-Aminopropan-2-yl)-2-(6-Methoxypyridin-3-Ylamino)Pyridin-3-yl)-6-Methyl-1,3,5-Triazin-2-Amine]	0.056	0.17
Cc1nc(N)nc(-c2cc(CN3CCN(S(C)(=O)=O)CC3)cnc2Nc2ccc3ncsc3c2)n1 [Example 241, N-(3-(4-Amino-6-Methyl-1,3,5-Triazin-2-yl)-5-((4-(Methylsulfonyl)Piperazin-1-yl)Methyl)Pyridin-2-yl)Benzo[D]Thiazol-6-Amine]	0.043	0.087
Cc1nc(N)nc(-c2cc(C(C)N3CCN(C(=O)N(C)C)CC3)cnc2Nc2ccc3scnc3c2)n1 (stereo not drawn) [Example 289, 4-(1-(5-(4-Amino-6-Methyl-1,3,5-Triazin-2-yl)-6-(Benzo[D]Thiazol-5-Ylamino)Pyridin-3-yl)Ethyl)-N,N-Dimethylpiperazine-1-Carboxamide]	0.06	0.111
COc1ccc(Nc2ncc(C(N)C(F)(F)F)cc2-c2nc(C)nc(N)n2)cn1 (stereo not drawn) [Example 324, 4-(5-(1-Amino-2,2,2-Trifluoroethyl)-2-(6-Methoxypyridin-3-Ylamino)Pyridin-3-yl)-6-Methyl-1,3,5-Triazin-2-Amine]	0.059	0.106

Stronger by Ki [1], values ahead:

Ki [1] [µM]	IC50 [2] [µM]	SMILES
0.026	0.446	COc1cncc(Nc2ncccc2-c2nc(C)nc3[nH]cnc23)c1 [Example 183, N-(5-Methoxypyridin-3-yl)-3-(2-Methyl-9H-Purin-6-yl)Pyridin-2-Amine]
0.02	0.204	Cc1nc(N)nc(-c2cc([C@@H](C)N3CCN(S(C)(=O)=O)CC3)cnc2Nc2cc(F)c3cccnc3c2)n1 [Example 287, (R)—N-(3-(4-Amino-6-Methyl-1,3,5-Triazin-2-yl)-5-(1-(4-(Methylsulfonyl)Piperazin-1-yl)Ethyl)Pyridin-2-yl)-5-Fluoroquinolin-7-Amine]
0.02	0.014	COc1ncc(Nc2ncc(CN3CCOCC3)cc2-c2nc(C)nc(N)n2)cc1F [Example 130, 4-(2-(5-fluoro-6-methoxypyridin-3-ylamino)-5-(morpholinomethyl)pyridin-3-yl)-6-methyl-1,3,5-triazin-2-amine]
0.018	0.051	COc1ncc(Nc2ncc([C@H](C)N3CCN(S(C)(=O)=O)C[C@@H]3C)cc2-c2nc(C)nc3[nH]cnc23)cc1F [Example 296, N-(5-Fluoro-6-Methoxypyridin-3-yl)-5-((S)-1-((S)-2-Methyl-4-(Methylsulfonyl)Piperazin-1-yl)Ethyl)-3-(2-Methyl-9H-Purin-6-yl)Pyridin-2-Amine]
0.017	0.145	Cc1nc(N)nc(-c2cc(CN3CCN(S(C)(=O)=O)CC3)cnc2Nc2cncnc2)n1 [Example 38, 4-Methyl-6-(5-((4-(Methylsulfonyl)Piperazin-1-yl)Methyl)-2-(Pyrimidin-5-Ylamino)Pyridin-3-yl)-1,3,5-Triazin-2-Amine]
0.013	0.018	COc1ncc(Nc2ncc(C=O)cc2-c2nc(C)nc(N)n2)cc1F [Example 187, 5-(4-Amino-6-Methyl-1,3,5-Triazin-2-yl)-6-(5-Fluoro-6-Methoxypyridin-3-Ylamino)Nicotinaldehyde]
0.011	0.046	COc1ccc(Nc2ncc(-c3cn[nH]c3)cc2-c2nc(C)nc(N)n2)cn1 [Example 250, 4-(2-(6-Methoxypyridin-3-Ylamino)-5-(1H-Pyrazol-4-yl)Pyridin-3-yl)-6-Methyl-1,3,5-Triazin-2-Amine]
0.01	0.003	Cc1nc(N)nc(-c2cc(C(C)N3CCOCC3)cnc2Nc2cnc(Cl)c(NS(=O)(=O)N(C)C)c2)n1 (stereo not drawn) [Example 370, N-(5-(3-(4-Amino-6-Methyl-1,3,5-Triazin-2-yl)-5-(1-Morpholinoethyl)Pyridin-2-Ylamino)-2-Chloropyridin-3-yl)-N,N-Dimethylaminosulfamide]
0.008	0.008	COc1ccc(Nc2ncc([C@H](C)N3CCN(S(C)(=O)=O)CC3)cc2-c2nc(C)nc(N)n2)cn1 [Example 145, (S)-4-(2-(6-Methoxypyridin-3-Ylamino)-5-(1-(4-(Methylsulfonyl)Piperazin-1-yl)Ethyl)Pyridin-3-yl)-6-Methyl-1,3,5-Triazin-2-Amine]
0.007	0.045	COc1ccc(Nc2ncc(CN3CCN(S(=O)(=O)N(C)C)CC3)cc2-c2nc(C)nc3[nH]cnc23)cn1 [Example 88, 4-((6-(6-Methoxypyridin-3-Ylamino)-5-(2-Methyl-9H-Purin-6-yl)Pyridin-3-yl)Methyl)-N,N-Dimethylpiperazine-1-Sulfonamide]
0.006	0.016	COc1ncc(Nc2ncc(C(C)(C)N3CCOCC3)cc2-c2nc(C)nc(N)n2)cc1F [Example 281, 4-(2-(5-Fluoro-6-Methoxypyridin-3-Ylamino)-5-(2-Morpholinopropan-2-yl)Pyridin-3-yl)-6-Methyl-1,3,5-Triazin-2-Amine]
0.004	0.037	COc1ncc(Nc2nc(-c3cccnc3)ccc2-c2nc(C)nc(N)n2)cc1F [Example 255, 5-(4-Amino-6-Methyl-1,3,5-Triazin-2-yl)-N-(5-Fluoro-6-Methoxypyridin-3-yl)-2,3′-Bipyridin-6-Amine]
0.002	0.006	COc1ncc(Nc2ncc(Cc3ccc(S(C)(=O)=O)cc3)cc2-c2nc(C)nc(N)n2)cc1F [Example 142, 4-(2-(5-fluoro-6-methoxypyridin-3-ylamino)-5-(4-(methylsulfonyl)benzyl)pyridin-3-yl)-6-methyl-1,3,5-triazin-2-amine]
0.001	0.009	COc1ncc(Nc2ncc([C@@H](C)N3CCN(S(C)(=O)=O)CC3)cc2-c2nc(C)nc3[nH]cnc23)cc1F [Example 297, (R)—N-(5-Fluoro-6-Methoxypyridin-3-yl)-3-(2-Methyl-9H-Purin-6-yl)-5-(1-(4-(Methylsulfonyl)Piperazin-1-yl)Ethyl)Pyridin-2-Amine]
0.001	0.011	COc1ncc(Nc2ncc(C(C)c3ccc(S(C)(=O)=O)cc3)cc2-c2nc(C)nc(N)n2)cc1F (stereo not drawn) [Example 150, 4-(2-(5-Fluoro-6-Methoxypyridin-3-Ylamino)-5-(1-(4-(Methylsulfonyl)Phenyl)Ethyl)Pyridin-3-yl)-6-Methyl-1,3,5-Triazin-2-Amine]
